Legend:
[1] = system: penicillin-resistant Streptococcus pneumonia; details: infected mice, twice-a-day dosing; cited from earlier work
[2] = Unbound fraction in plasma (rapid equilibrium dialysis), rat; type: in vitro ADME; details: rats plasma, 0.3, 1, 3 μM, RED 5 h, read-out: fu,p
Description: (§1) The unbound fractions of IDP-73152 in various matrices were measured according to the manufacturer’s instructions for the rapid equilibrium dialysis (RED) device (ThermoFisher Scientific, Waltham, MA, USA). Briefly, IDP-73152 was added to the plasma or the microsomal/hepatocyte incubation buffer from various species (i.e., mouse, rat, dog, and human for microsomal incubation; rat for hepatocyte incubation) to obtain final concentrations of the compound at 0.3, 1, and 3 μM. After the membrane insert was placed in the RED plate, the solution containing IDP-73152 was added (400 µL) to the sample chamber, and the dialysis buffer (600 μL) was added to the buffer chamber. The RED plate was sealed with parafilm and then incubated at 37 °C in the orbital shaker (Lab Companion, Daejeon, Korea) at 100 rpm for 5 h. After a 50 μL aliquot was aspirated from both the sample and buffer chambers, an equal volume of protein-free buffer or blank medium was replaced in the aspirated sample or buffer to render the matrices compositionally identical. The IDP-73152 concentration in the buffer/sample chambers (i.e., CBuffer Chamber and CSample Chamber) was determined by an assay. Thus, the fraction unbound was defined as:(2) % Fraction unbound=(CBuffer Chamber/CSample Chamber)×100%

Stability in plasma, rat = type: in vitro ADME, rats
Description: as §1, with “manufacturer's” for “manufacturer’s”, “μL)” for “µL)”, “After a 50 μL aliquot was aspirated from both the sample and buffer chambers, an equal volume of protein-free buffer or blank medium was replaced in the aspirated sample or buffer to render the matrices compositionally identical.” left out, “Chamber)×100% When necessary, the stability of IDP-73152 in the matrix was also determined at 5 h. […] Accordingly, the kinetics of IDP-73152 instability were determined in the rat blood at a final concentration of 0.3 μM. […]” for “Chamber)×100%”

[3] = Blood partitioning (LC-MS/MS-based depletion method), dog; type: in vitro ADME; details: whole blood, dogs blood, 0.3, 1, 3 μM, read-out: BP (blood-to-plasma concentration ratio)
Description: In this study, the partitioning of IDP-73152 in blood samples obtained from mice, rats, dogs, and humans was determined using the LC-MS/MS-based depletion method with slight modifications. DP-73152 was added to an aliquot (1 mL) of blank blood or plasma at a final concentration of 0.3, 1, or 3 μM. The mixture was incubated at 37 °C in a water bath for 60 min. After the incubation, the plasma was separated by centrifugation of the blood samples for 5 min at 10,000× g/4 °C and stored at -80 °C until analysis. The blood-to-plasma concentration ratio (BP) was calculated using the equation:(3) BP=[…], where […] is the concentration of the compound at the corresponding blood concentration in the plasma, and CPL is the concentration from the plasma sample separated from the incubated blood.

hepatic CYP3A = test: Preliminary studies of metabolic pathway; type: in vitro ADME

SMILES: CC(C)(C)[C@H](NC(=O)[C@H](CC1CCCC1)CN(O)C=O)C(=O)N1CCC(NCc2cc(F)c(F)cc2F)CC1 [IDP-73152]
- ED50 (oral dose at which the survival rate was 50%) [1]: 3.0 mg/kg
- fraction unbound at 5 h [2]: 0.0582 ± 0.005
- stability in blood and plasma (Stability in plasma, rat; rat blood and plasma, preliminary study): unstable
- percentage remaining in plasma at 5 h (Stability in plasma, rat; rats plasma, 5 h, 37 °C): 65.3 ± 13.7%
- blood plasma ratio at 60 min [3]: 1.45 ± 0.11
- primary metabolic pathway (hepatic CYP3A): mediated by hepatic CYP3A

From publication PMC9227536, “Prediction of Pharmacokinetics of IDP-73152 in Humans Using Physiologically-Based Pharmacokinetics” (Pharmaceutics, 2022)
